From patent US20080200334A1, “Method For Enhancing The Effectiveness Of Ethaboxam” (BASF Aktiengesellschaft, priority 2004, published 2008)
Where two headings read alike, the source gives them in different places.

Key:
Plasmopara viticola [1] = assay: Use Example 1: peronospora of grapevines, greenhouse, 7 days of protective application; type: in vivo; conditions: grapevine leaves sprayed 7 days before inoculation
Description: The active compounds were prepared jointly or separately as a stock solution with 25 mg of active compound which was made up to 10 ml using a mixture of acetone and/or DMSO and the emulsifier Uniperol® EL (wetting agent having emulsifying and dispersing action based on ethoxylated alkylphenols) in a volume ratio of solvent/emulsifier of 99 to 1. The mixture was then made up with water to 100 ml. This stock solution was diluted with the solvent/emulsifier/water mixture described to the concentration of active compounds stated below.
The active compounds pyraclostrobin, famoxadone, fluazinam and zoxamide were used as commercially available formulations.
The visually determined percentages of infected leaf areas were converted into efficacies in % of the untreated control:
The efficacy (E) is calculated as follows using Abbot's formula:
An efficacy of 0 means that the infection level of the treated plants corresponds to that of the untreated control plants; an efficacy of 100 means that the treated plants were not infected.
The expected efficacies of mixtures of active compounds were determined using Colby's formula (Colby, S. R. “Calculating synergistic and antagonistic responses of herbicide combinations”, Weeds, 15, 20-22, 1967) and compared with the observed efficacies.
E=x+y−x·y/100 • E expected efficacy, expressed in % of the untreated control, when using the mixture of the active compounds A and B at the concentrations a and b • x efficacy, expressed in % of the untreated control, when using the active compound A at the concentration a • y efficacy, expressed in % of the untreated control, when using the active compound B at the concentration b
Effectiveness Against Peronospora of Grapevines Caused by Plasmopara viticola at 7 days of Protective Application
Leaves of potted vines were sprayed to runoff point with an aqueous suspension having the concentration of active compound given below. To be able to assess the persistency of the substances, the plants were, after the spray coating had dried on, placed in a greenhouse for 7 days. Only then were the leaves inoculated with an aqueous zoospore suspension of Plasmopara viticola. The grapevines were then initially placed in a water-vapor-saturated chamber at 24° C. for 48 hours and then in a greenhouse at temperatures between 20 and 30° C. for 5 days. After this period of time the plants were, to promote sporangiophore eruption, again placed in a humid chamber for 16 hours. The extent of the development of the infection on the undersides of the leaves was then determined visually.

Septoria tritici = assay: Use Example 6: Septoria speckled leaf blotch, microtiter test; type: cell-based; conditions: day 7 after inoculation, 405 nm
Phytophthora infestans = type: in vivo; conditions: tomato leaves sprayed 3 days before inoculation, rated after 6 days
Plasmopara viticola [2] = type: in vivo
Botrytis cinerea = assay: Use Example 4: gray mold, microtiter test; type: cell-based; conditions: day 7 after inoculation, 405 nm
Pyricularia oryzae = type: cell-based

Molecule: CCNc1nc(CC)c(C(=O)NC(C#N)c2cccs2)s1 (centres unmarked) [ethaboxam I, N-(cyano-2-thienylmethyl)-4-ethyl-2-(ethylamino)-5-thiazolecarboxamide]
- Observed effect (%) (Plasmopara viticola [1]; 1 ppm): 0%
- Observed effect (%) (Plasmopara viticola [1]; 4 ppm): 22%
- Observed effect (%) (Plasmopara viticola [1]; 16 ppm): 44%
- Observed effect (%) (Septoria tritici; 0.125 ppm): 0%
- Observed effect (%) (Septoria tritici; 4 ppm): 0%
- Observed effect (%) (Septoria tritici; 16 ppm): 0%
- Observed effect (%) (Phytophthora infestans; 16 ppm): 33%
- Observed effect (%) (Plasmopara viticola [2]; 1 ppm): 61%
- Observed effect (%) (Botrytis cinerea; 1 ppm): 0%
- Observed effect (%) (Botrytis cinerea; 2 ppm): 0%
- Observed effect (%) (Botrytis cinerea; 4 ppm): 0%
- Observed effect (%) (Botrytis cinerea; 32 ppm): 0%
- Observed effect (%) (Botrytis cinerea; 63 ppm): 11%
- Observed effect (%) (Pyricularia oryzae; 0.125 ppm): 0%
- Observed effect (%) (Pyricularia oryzae; 0.25 ppm): 0%
- Observed effect (%) (Pyricularia oryzae; 8 ppm): 18%
- Observed effect (%) (Pyricularia oryzae; 16 ppm): 41%
- Observed effect (%) (Pyricularia oryzae; 63 ppm): 56%

Molecule: COc1ccc(C(=CC(=O)N2CCOCC2)c2ccc(F)cc2)cc1OC [flumorph II-8, 3-(4-fluorophenyl)-3-(3,4-dimethoxyphenyl)-1-morpholin-4-ylpropenone]
- Observed effect (%) (Botrytis cinerea; 63 ppm): 16%
- Observed effect (%) (Pyricularia oryzae; 16 ppm): 11%

Molecule: O=[N+]([O-])c1cc(C(F)(F)F)c(Cl)c([N+](=O)[O-])c1Nc1ncc(C(F)(F)F)cc1Cl [fluazinam II-4, 3-chloro-N-[3-chloro-2,6-dinitro-4-(trifluoromethyl)phenyl]-5-(trifluoromethyl)-2-pyridinamine]
- Observed effect (%) (Plasmopara viticola [1]; 63 ppm): 22%

Molecule: COc1ccc(C(=CC(=O)N2CCOCC2)c2ccc(Cl)cc2)cc1OC [dimethomorph II-2, 3-(4-chlorophenyl)-3-(3,4-dimethoxyphenyl)-1-morpholin-4-ylpropenone]
- Observed effect (%) (Plasmopara viticola [1]; 4 ppm): 0%
- Observed effect (%) (Phytophthora infestans; 4 ppm): 0%
- Observed effect (%) (Phytophthora infestans; 16 ppm): 22%
- Observed effect (%) (Botrytis cinerea; 63 ppm): 9%
- Observed effect (%) (Pyricularia oryzae; 4 ppm): 6%

Molecule: CC1(c2ccc(Oc3ccccc3)cc2)OC(=O)N(Nc2ccccc2)C1=O (racemic) [famoxadone II-11, (RS)-3-anilino-5-methyl-5-(4-phenoxyphenyl)-1,3-oxazolidine-2,4-dione]
- Observed effect (%) (Pyricularia oryzae; 0.5 ppm): 64%

Molecule: N#Cc1sc2c(=O)c3ccccc3c(=O)c=2sc1C#N [dithianon II-15, 5,10-dioxo-5,10-dihydronaphtho[2,3-b][1,4]dithiin-2,3-dicarbonitrile]
- Observed effect (%) (Septoria tritici; 0.125 ppm): 35%

Molecule: ethyl phosphonate aluminum [fosethyl-Al II-12]
- Observed effect (%) (Pyricularia oryzae): 8%

Molecule: manganese ethylenebis(dithiocarbamate) [maneb II-5]
- Observed effect (%) (Plasmopara viticola [2]; in vivo): 0%

Molecule: manganese ethylenebis(dithiocarbamate) zinc complex [mancozeb II-9]
- Observed effect (%) (Septoria tritici; 1 ppm): 29%
- Observed effect (%) (Botrytis cinerea; 4 ppm): 30%

Molecule: CCNC(=O)NC(=O)/C(C#N)=N/OC [cymoxanil II-3, cymoxanil]
- Observed effect (%) (Plasmopara viticola [1]; 4 ppm): 0%

Molecule: COC(=O)N(OC)c1ccccc1COc1ccn(-c2ccc(Cl)cc2)n1 [pyraclostrobin II-6, methyl N-{2-[1-(4-chlorophenyl)-1H-pyrazol-3-yloxymethyl]phenyl}(N-methoxy)carbamate]
- Observed effect (%) (Botrytis cinerea; 0.5 ppm): 22%

Molecule: zinc ammoniate ethylenebis(dithiocarbamate) [metiram II-14]
- Observed effect (%) (Septoria tritici; 4 ppm): 19%

Molecule: O=C1c2ccccc2C(=O)N1SC(Cl)(Cl)Cl [folpet II-10, folpet]
- Observed effect (%) (Septoria tritici; 4 ppm): 54%
- Observed effect (%) (Botrytis cinerea; 1 ppm): 38%
- Observed effect (%) (Pyricularia oryzae; 1 ppm): 20%
